In patent US20260265262A1, “CDK2 INHIBITORS AND METHODS OF USING THE SAME” (Cedilla Therapeutics, Inc., priority 2022, published 2026):

Legend:
Kuramochi cells = assay: IncuCyte cell proliferation assay; format: cell-based; conditions: Kuramochi cells labeled with mApple-H2B, cell count 0 to 72 hours, 20 μM top concentration; read-out: IncuCyte Kuramochi RB-WT: IC50
Method in brief: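 Kuramochi cells expressing mApple-H2B were treated with a 10-point, ½-log dilution series (top 20 μM). Fluorescent nuclei were counted by IncuCyte imaging at 0 and 72 h. The fold change in cell count was normalized to DMSO wells and fitted to dose-response curves to give […].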

CDK2/Cyclin E1 [1] = target: T1, CDK2/Cyclin E1 (Homo sapiens, UniProt P24941); assay: CDK2/Cyclin E1 Caliper LabChip EZ Reader mobility shift assay; format: biochemical; conditions: 2.5 nM CDK2/Cyclin E1, 100 μM ATP, 1.5 μM fluorescent peptide, 30 min pre-incubation; read-out: Caliper Assay (CDK2/CCNE1): IC50
Protocol: Inhibition of CDK2/Cyclin E1 activity in the presence of compounds of the present disclosure was evaluated using a CaliperLabChip® EZ Reader mobility shift assay. In the assay, CDK2/Cyclin E1 (Eurofins, 14-475) catalyzed the phosphorylation of a fluorescently tagged peptide 5-FAM-QSPKKG-CONH2 (PerkinEliner, FL Peptide 18) which induced a difference in capillary electrophoresis mobility. The peptide substrate and product were measured, and the conversion ratio was used to determine the inhibition (as % activity and IC50 values) of CDK2/Cyclin E1. Reactions contained 50 mM HEPES pH 7.5, 10 mM MgCl2, 1 mM EDTA, 2 mM DTT, 0.01% Brij35, 0.5 mg/mL BSA, 0.1% DMSO, 2.5 nM CDK2/Cyclin E1, 100 μM ATP, and 1.5 μM fluorescent peptide substrate.
Dose titrations of inhibitors in 100% DMSO were combined with 3.25 nM CDK2/Cyclin E1 and 130 μM of ATP in reaction buffer. The mixtures were incubated for 30 minutes before the addition of fluorescent peptide substrate to initiate the kinase reaction. The final conditions were 2.5 nM CDK2/Cyclin E1, 100 μM ATP, and 1.5 μM fluorescent peptide. The reactions were stopped after 100 minutes with the addition of EDTA (400 mM final EDTA concentration). The stopped reactions were analyzed on a Caliper LabChip® EZ Reader II. The conversion ratios were normalized to yield % activity, plotted against compound concentration, and fit to a four-parameter equation to determine the IC50 for each compound.

CDK2/Cyclin E1 [2] = target: T1, CDK2/Cyclin E1; assay: ADP-Glo Luminescent Kinase Assay (CDK2/E1-37C); format: biochemical; conditions: 0.18 nM CDK2/Cyclin E1, 100 μM ATP, 1.5 μM Histone H1, 37° C., 60 min pre-incubation; read-out: ADPGLO (CDK2/E1-37C): IC50
Method in brief: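 Human CDK2/Cyclin E1 preincubated with inhibitor 60 min at 37 °C, then reacted 90 min at 37 °C with final 0.18 nM enzyme, 100 μM ATP, 1.5 μM Histone H1 in HEPES pH 7.5 buffer. ADP formed read by ADP-Glo luminescence; IC50 from four-parameter fit.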

| Compound | IC50 (CDK2/Cyclin E1 [1]) | IC50 (CDK2/Cyclin E1 [2]) | IC50 (Kuramochi cells) |
| --- | --- | --- | --- |
| COC(=O)[C@@H]1CCCCN1C(=O)[C@@H](NC(=O)[C@@H]1CN(C(=O)c2cnn(Cc3ccccc3)c2)CC12CN(C(=O)[C@H]1CC1(C)C)C2)[C@@H](C)OCC1CCCCC1 [Example I-38] | < 10 nM | < 500 nM | < 500 nM |
| COC(=O)C1(CNC(=O)[C@@H](NC(=O)[C@@H]2CN(C(=O)c3cnn(Cc4ccccc4)c3)CC23CN(C(=O)[C@H]2CC2(C)C)C3)[C@@H](C)OCC2CCCCC2)CC1 [Example I-39] | < 10 nM | < 500 nM | < 500 nM |
| COC(=O)CCNC(=O)[C@@H](NC(=O)[C@@H]1CN(C(=O)c2cnn(Cc3ccc(F)cc3)c2)CC12CN(C(=O)C1(C(F)(F)F)CC1)C2)[C@@H](C)OCC12CCC(CC1)OC2 [Example I-111, Methyl 3-((2S,3R)-3-((2-oxabicyclo[2.2.2]octan-4-yl)methoxy)-2-((S)-6-(1-(4-fluorobenzyl)-1H-pyrazole-4-carbonyl)-2-(1-(trifluoromethyl)cyclopropane-1-carbonyl)-2,6-diazaspiro[3.4]octane-8-carboxamido)butanamido)propanoate] |  | < 500 nM | > 20000 nM |
| C[C@@H](OCC12CCC(CC1)OC2)[C@H](NC(=O)[C@@H]1CN(C(=O)c2cnn(Cc3ccccc3C(=O)O)c2)CC12CN(C(=O)C1(C(F)(F)F)CC1)C2)C(=O)N1CCNC2(CC2)C1 [Example I-112, 2-((4-((S)-8-(((2S,3R)-3-((2-oxabicyclo[2.2.2]octan-4-yl)methoxy)-1-oxo-1-(4,7-diazaspiro[2.5]octan-7-yl)butan-2-yl)carbamoyl)-2-(1-(trifluoromethyl)cyclopropane-1-carbonyl)-2,6-diazaspiro[3.4]octane-6-carbonyl)-1H-pyrazol-1-yl)methyl)benzoic acid] |  | < 500 nM | > 20000 nM |
| C[C@@H](OCC12CCC(CC1)OC2)[C@@H](COC1CCOCC1)NC(=O)[C@@H]1CN(C(=O)c2cncs2)CC12CN(C(=O)C1(C(F)(F)F)CC1)C2 [Example I-113, (8S)—N-[(2R,3R)-3-{2-oxabicyclo[2.2.2]octan-4-ylmethoxy}-1-(oxan-4-yloxy)butan-2-yl]-6-(1,3-thiazole-5-carbonyl)-2-[1-(trifluoromethyl)cyclopropanecarbonyl]-2,6-diazaspiro[3.4]octane-8-carboxamide] |  | 500 to 5000 nM | > 20000 nM |
| COC(=O)[C@@H]1CN(C(=O)[C@@H](NC(=O)[C@@H]2CN(C(=O)c3cnn(Cc4ccc(C#N)cc4)c3)CC23CN(C(=O)C2(C(F)(F)F)CC2)C3)[C@@H](C)OCC23CCC(CC2)OC3)CCN1C(=O)OC(C)(C)C [Example I-114] |  | < 500 nM | 5000 to 20000 nM |
| CCCN1CCC2(CC1)CCN(C(=O)C(NC(=O)C1CN(C(=O)c3cnn(Cc4ccccc4C(=O)O)c3)CC13CN(C(=O)C1(C(F)(F)F)CC1)C3)C(C)OCC13CCC(CC1)OC3)CC2 (stereo not shown) [Example I-115] |  | < 500 nM | > 20000 nM |
| C[C@@H](OCC1CCOCC1)[C@H](NC(=O)[C@@H]1CN(C(=O)c2cnn(Cc3ccc(C(F)(F)F)cc3)c2)CC12CN(C(=O)C1(C(F)(F)F)CC1)C2)C(=O)N1CCC(c2ccc(C(=O)O)cc2)CC1 [I-64 1st, 4-(1-(O-((tetrahydro-2H-pyran-4-yl)methyl)-N—((S)-6-(1-(4-(trifluoromethyl)benzyl)-1H-pyrazole-4-carbonyl)-2-(1-(trifluoromethyl)cyclopropane-1-carbonyl)-2,6-diazaspiro[3.4]octane-8-carbonyl)-L-threonyl)piperidin-4-yl)benzoic acid] |  | < 500 nM | > 20000 nM |
| C[C@@H](OCC12CCC(CC1)OC2)[C@H](NC(=O)[C@@H]1CN(C(=O)c2cnc(O)cn2)CC12CN(C(=O)C1(C(F)(F)F)CC1)C2)C(=O)N1CCC(c2ccc(C(=O)O)c(C(F)(F)F)c2)CC1 [I-89 1st, 4-(1-(O-((2-oxabicyclo[2.2.2]octan-4-yl)methyl)-N—((S)-6-(5-hydroxypyrazine-2-carbonyl)-2-(1-(trifluoromethyl)cyclopropane-1-carbonyl)-2,6-diazaspiro[3.4]octane-8-carbonyl)-L-threonyl)piperidin-4-yl)-2-(trifluoromethyl)benzoic acid] |  | > 10000 nM | > 20000 nM |
| C[C@@H](OCC12CCC(CC1)OC2)[C@H](NC(=O)[C@@H]1CN(C(=O)c2cnc(O)cn2)CC12CN(C(=O)C1(C(F)(F)F)CC1)C2)C(=O)N1CCC(c2ccc(C(=O)O)c(C(F)(F)F)c2)CC1 [I-89 3rd, 4-(1-(O-((2-oxabicyclo[2.2.2]octan-4-yl)methyl)-N-(6-(5-hydroxypyrazine-2-carbonyl)-2-(1-(trifluoromethyl)cyclopropane-1-carbonyl)-2,6-diazaspiro[3.4]octane-8-carbonyl)-L-threonyl)piperidin-4-yl)-2-(trifluoromethyl)benzoic acid] |  | < 500 nM | > 20000 nM |

Further lines, with some results ahead:

| IC50 (CDK2/Cyclin E1 [1]) | IC50 (CDK2/Cyclin E1 [2]) | Compound | IC50 (Kuramochi cells) |
| --- | --- | --- | --- |
| 100 to 1000 nM |  | C[C@@H](OCC1(CO)CC=CCC1)C(NC(=O)[C@@H]1CN(C(=O)c2cnco2)CC12CN(C(=O)C(C)(C)C1CC1)C2)C(C)(C)O (single isomer, unassigned) [Example I-57] | > 20000 nM |
| 10 to 100 nM |  | Cc1nc(C)c(C(=O)N2C[C@@H](C(=O)N[C@H](C(=O)N3CCC(OC(F)(F)F)CC3)[C@@H](C)OCC3(CO)CC=CCC3)C3(C2)CN(C(=O)[C@H]2CC2(C)C)C3)s1 (stereo in doubt) [Example I-51] | 500 to 5000 nM |
| < 10 nM |  | COC1CCN(C(=O)[C@@H](NC(=O)[C@@H]2CN(C(=O)c3cncs3)CC23CN(C(=O)[C@H]2CC2(C)C)C3)[C@@H](C)OCC2(CO)CC=CCC2)CC1 (stereo in doubt) [Example I-54] | 500 to 5000 nM |
| 10 to 100 nM |  | COC1CCN(C(=O)[C@@H](NC(=O)[C@@H]2CN(C(=O)c3sc(C)nc3C)CC23CN(C(=O)[C@H]2CC2(C)C)C3)[C@@H](C)OCC2(CO)CC=CCC2)CC1 (stereo in doubt) [Example I-55] | > 20000 nM |
| < 10 nM |  | Cc1nc(C)c(C(=O)N2C[C@@H](C(=O)NC(C(=O)N3CCC(C(F)(F)F)CC3)[C@@H](C)OCC3(CO)CC=CCC3)C3(C2)CN(C(=O)[C@H]2CC2(C)C)C3)s1 (stereo partly drawn) [Example I-50, (8S)-2-((S)-2,2-dimethylcyclopropane-1-carbonyl)-6-(2,4-dimethylthiazole-5-carbonyl)-N-((2S,3R)-3-((1-(hydroxymethyl)cyclohex-3-en-1-yl)methoxy)-1-oxo-1-(4-(trifluoromethyl)piperidin-1-yl)butan-2-yl)-2,6-diazaspiro[3.4]octane-8-carboxamide] | 500 to 5000 nM |
| < 10 nM |  | C[C@@H](OCC1(CO)CC=CCC1)[C@H](NC(=O)[C@@H]1CN(C(=O)c2cncs2)CC12CN(C(=O)[C@H]1CC1(C)C)C2)C(=O)N1CCC(C)(C)CC1 (stereo partly shown) [Example I-53] | < 500 nM |
| 1000 to 10000 nM |  | Cc1nc(C)c(C(=O)N2C[C@@H](C(=O)NC([C@@H](C)OCC3(CO)CC=CCC3)C(C)(C)O)C3(C2)CN(C(=O)C(C)(C)C2CC2)C3)s1 (stereo partly drawn) [Example I-56, (8S)-2-(2-cyclopropyl-2-methylpropanoyl)-6-(2,4-dimethylthiazole-5-carbonyl)-N-((4R)-2-hydroxy-4-((1-(hydroxymethyl)cyclohex-3-en-1-yl)methoxy)-2-methylpentan-3-yl)-2,6-diazaspiro[3.4]octane-8-carboxamide] | > 20000 nM |
| 100 to 1000 nM |  | CNC(=O)C(NC(=O)[C@@H]1CN(C(=O)c2cncs2)CC12CN(CC1CCCO1)C2)[C@@H](C)OCC12CCC(CC1)OC2 (stereo partly drawn) [Example I-59, (8S)—N-((3R)-3-((2-oxabicyclo[2.2.2]octan-4-yl)methoxy)-1-(methylamino)-1-oxobutan-2-yl)-2-((tetrahydrofuran-2-yl)methyl)-6-(thiazole-5-carbonyl)-2,6-diazaspiro[3.4]octane-8-carboxamide] | 5000 to 20000 nM |
| 100 to 1000 nM |  | COC[C@H]1CCCN(C(=O)[C@@H](NC(=O)[C@H]2CN(C(=O)c3cncs3)CC23CN(C(=O)[C@H]2CC2(C)C)C3)[C@@H](C)OCC2CCCCC2)C1 [Example I-116, (R)—N-((2S,3R)-3-(cyclohexylmethoxy)-1-((S)-3-(methoxymethyl)piperidin-1-yl)-1-oxobutan-2-yl)-2-((S)-2,2-dimethylcyclopropanecarbonyl)-6-(thiazole-5-carbonyl)-2,6-diazaspiro[3.4]octane-8-carboxamide] | 5000 to 20000 nM |
